# Laboratory results as given in patent publication US20210252120A1, “IMMUNOTHERAPY FOR CANCER” (SOTIO A.S., priority 2016, published 2021).
# Tests used:
# CD8^+ T cells = assay: Proliferation of CD8+ T cells (Ki67+ staining, flow cytometry) in tumor cell suspensions incubated with IL-15; type: cell-based, human
# Method: (§1) Tumoral (Tu) and non-tumoral tissue (NTu) were obtained from 82 NSCLC patients undergoing neoadjuvant surgery. The characteristics of NSCLC patients are depicted in Table 2. Tissue samples obtained at the day of surgery were chopped into small pieces and incubated with agitation in RMPI 1640 medium (Gibco) with 100 ng/ml DNAse I and 20 ng/ml Collagenase D (both from Roche) for 45 minutes at 37° C. The cell suspension was then passed through the 100 μm strainer into 50 ml falcon tubes to obtain single cell suspensions. The infiltrated immune cell populations were analyzed by flow cytometry immediately after staining with specific antibodies for 30 min at 4° C. as described below. For further stimulation lymphocytes were counted and seeded into 96-well plates at the concentration of 1×10^6 lymphocytes/nil in RPMI-1640 medium supplemented with 10% heat-inactivated fetal bovine serum (PAA), 2 mM GlutaMAX I CTS (Gibco) and 100 U/ml penicillin+[…] streptomycin (Gibco). Cells were stimulated with 50 ng/ml PMA and 10 ng/ml ionomycin (both from Sigma-Aldrich) for 1 h at 37° C. before Brefeldin A (BioLegend, 1000×) was added for 3 h to detect intracellular IFN-γ in CD8^+ and CD4^+ T cells. In some experiments recombinant IL-15 (Peprotech, 13 ng/ml) was added to the cell culture and the proliferating CD8^+ T cells and NK cells were detected by flow cytometry after 3 and 7 days of incubation at 37° C. Cell viability was detected by DAPI (Thermo Fisher Scientific) or by LIVE/DEAD® Fixable Aqua Dead Cell Stain Kit 405 nm excitation (Invitrogen).
# (§2) Cells were stained extracellularly with the mixture of appropriate antibody in PBS for 30 min at 4° C. For intracellular staining of IFN-γ, Foxp3, CD3 and Ki-67 the cells were fixed for 30 min using Fixation Buffer (eBioscience), permeabilized with Permeabilization Buffer (eBioscience) and stained intracellularly for 30 min at 4° C. Cells were washed with PBS and analyzed by LSRFortessa (BD Biosciences). Data were analyzed with FlowJo software (Tree Star). Flow cytometry data may be expressed as mean fluorescent intensity (MFI).
# (§3) As PMA and ionomycin represent strong unspecific stimulation of immune cells, IL-15 was used to activate predominantly NK cells and CD8^+ T cells, playing a major role in antitumor immunity. Tumor cell suspensions were incubated alone or with IL-15 for 7 days. The proliferation of CD8^+ T cells and NK cells was analyzed on Day 0, 3 and 7 by Ki67^+ staining followed by flow cytometry. Whereas 68% and 79% of T cells and NK cells, respectively, proliferated on Day 3 of incubation in AC tumors, only 23% and 8% of T cells and NK cells, respectively, proliferated in SCC tumors, confirming a higher immunosuppressive environment in SCC than AC tumors (see Table 6).
# NK cells (CD3^−CD56^+) = assay: Proliferation of NK cells (Ki67+ staining, flow cytometry) in tumor cell suspensions incubated with IL-15; type: cell-based, human
# Method: as §1, §2, §3
# [1] = AC tumor cell suspension, Day 3, +IL-15
# [2] = AC tumor cell suspension, Day 7, +IL-15
# [3] = SCC tumor cell suspension, Day 3, +IL-15
# [4] = SCC tumor cell suspension, Day 7, +IL-15
substance,measurement,setting,value
"IL-15: recombinant IL-15 (Peprotech, 13 ng/ml) added to cell culture to activate predominantly NK cells and CD8+ T cells",Ki67^+ cells from CD8^+ T cells,CD8^+ T cells; [1],68%
same,Ki67^+ cells from CD8^+ T cells,CD8^+ T cells; [2],62%
same,Ki67^+ cells from CD8^+ T cells,CD8^+ T cells; [3],23%
same,Ki67^+ cells from CD8^+ T cells,CD8^+ T cells; [4],45%
same,Ki67^+ cells from CD3^−CD56^+ T cells (NK cells),NK cells (CD3^−CD56^+); [1],79%
same,Ki67^+ cells from CD3^−CD56^+ T cells (NK cells),NK cells (CD3^−CD56^+); [2],50%
same,Ki67^+ cells from CD3^−CD56^+ T cells (NK cells),NK cells (CD3^−CD56^+); [3],8%
same,Ki67^+ cells from CD3^−CD56^+ T cells (NK cells),NK cells (CD3^−CD56^+); [4],40%
